{
  "source": "paper PMC9019100",
  "about": "“Development of NanoLuc-targeting protein degraders and a universal reporter system to benchmark tag-targeted degradation platforms” (Nature Communications, 2022)",
  "key": {"[1]": {"target": "T1, Halo-EGFP-NanoLuc-FKBP^F36V (H-E-N-F) fusion protein (UniProt P0A3G2+P62942+Q9GV45, A155T/A167V/A172T/A224E/A31E/A60N/A81I/C128F/C176G/D78G/E160K/E257K/F37V/F95D/H272N/I117V/K175M/K195N/K70R/L47V/L54V/L88M/L99Q/M102K/N193R/N227D/P142E/P291S/Q151K/Q38R/Q45L/S2A/S58T/T264A/V71I/Y165I/Y273L/Y87F)", "T1 sequence (Q9GV45 other isoform, or with tags, fused parts or gaps with the stated changes)": "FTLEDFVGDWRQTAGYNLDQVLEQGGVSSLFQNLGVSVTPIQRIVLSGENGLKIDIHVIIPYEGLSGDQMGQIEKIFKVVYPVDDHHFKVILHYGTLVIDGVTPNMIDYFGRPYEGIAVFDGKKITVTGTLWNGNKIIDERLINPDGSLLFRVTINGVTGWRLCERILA", "T1 sequence (P0A3G2 other isoform, or with tags, fused parts or gaps with the stated changes)": "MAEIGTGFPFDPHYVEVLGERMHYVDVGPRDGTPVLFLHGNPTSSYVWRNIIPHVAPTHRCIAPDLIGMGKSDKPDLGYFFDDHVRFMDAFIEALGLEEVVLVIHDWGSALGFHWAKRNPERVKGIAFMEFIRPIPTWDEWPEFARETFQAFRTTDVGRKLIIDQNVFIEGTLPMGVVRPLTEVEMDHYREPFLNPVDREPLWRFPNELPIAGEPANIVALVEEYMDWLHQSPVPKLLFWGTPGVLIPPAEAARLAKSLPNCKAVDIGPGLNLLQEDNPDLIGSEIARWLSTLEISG", "T1 sequence (P62942 whole entry F37V, the tested form may be a part)": "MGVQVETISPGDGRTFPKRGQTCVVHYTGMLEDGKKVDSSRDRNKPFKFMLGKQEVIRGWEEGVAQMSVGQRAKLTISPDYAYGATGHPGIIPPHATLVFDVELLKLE", "type": "cell-based"}, "wild-type HT29 cells": {"system": "wild-type HT29 cells", "test": "Necroptosis assay (PI exclusion, flow cytometry), wild-type HT29 cells, TNF+SM+IDN", "type": "cell-based, human", "conditions": "sheet S5F", "procedure": "To simulate necroptosis, cells were seeded into 96-well plates ±40 ng/mL doxycycline, to induce construct expression, and treated with 100 ng/mL FLAG-TNF (recombinant human, in-house), 500 nM compound A Smac mimetic (kindly gifted by TetraLogics Pharmaceuticals) and 5 μM IDN-6556 (Cayman) or 10 uM Z-VAD-fmk (Selleckchem) overnight (16–24 h). Degrader compounds or a DMSO vehicle control were added for 5 h, as stated in the Fig. legends. Cells were detached using Trypsin-EDTA (Merck) and resuspended in cell supernatants containing 10 μg/mL propidium iodide (PI). PI exclusion analysis was performed using an LSR II flow cytometer (Becton Dickinson, NJ) with 10,000 single-cell events per sample. Flow cytometry data were analysed using WEASEL version 2.7 software (Frank Battye).\nSupplementary Figure 5. […]\nNC4. Data are representative of N = 3 independent experiments. f-h. HT29 cells were stimulated with DMSO (control) or 500 nM of degrader for 5 hours before the addition of TNF (100 ng/mL) + Smac mimetic (compound A; 500 nM-1 µM) + caspase inhibitor; Emricasan (IDN) (5 µM), for 24 hours. Cell death was assessed by flow cytometric analysis of PI exclusion. N = 3 replicates (symbols) is shown, EB; mean ± SD. Data are representative of N = 3 independent experiments. i. Representative flow cytometry gating strategy. Source data are provided as a Source Data file."}, "[2]": {"target": "T1, Halo-EGFP-NanoLuc-FKBP^F36V (H-E-N-F) fusion protein", "type": "cell-based", "conditions": "125-500 nM, 5 h"}, "[3]": {"target": "recombinant NanoLuc enzyme (Oplophorus gracilirostris, UniProt Q9GV45, A31E/A60N/A81I/F95D/I117V/K70R/L54V/L99Q/M102K/N193R/P142E/Q151K/Q38R/Q45L/V71I/Y165I)", "sequence (Q9GV45 other isoform, or with tags, fused parts or gaps with the stated changes)": "as the sequence (Q9GV45 other isoform, or with tags, fused parts or gaps with the stated changes) above", "type": "biochemical", "conditions": "replicates"}, "NanoLuc": {"system": "NanoLuc", "conditions": "read-out: IC50 against the enzymatic activity of NanoLuc; cited from earlier work"}, "[4]": {"conditions": "62.5nM, sheet S3B, replicate wells"}, "[5]": {"conditions": "250nM, sheet S3B, replicate wells"}, "[6]": {"conditions": "500nM, sheet S3B, replicate wells"}, "[7]": {"conditions": "1uM, sheet S3B, replicate wells"}},
  "note": "Values joined by “and” are separate entries in the source; they are usually repeats but may differ in a detail not shown here. Equal entries are not always repeated. Where two headings read alike, the source gives them in different places. Peptide text beside a SMILES is read from it. * marks the point of attachment. Cbz = O=C(OCc1ccccc1)*",
  "data": [
    {"compound": "O=C(COCCOCCCCCCCl)NCCCCNc1cccc2c1C(=O)N(C1CCC(=O)NC1=O)C2=O", "note": "(stereo not drawn) [HC2]", "values": [
      {"measurement": "Blank corrected (470-80)", "setting": "[1]; [4]", "value": "420571 and 387799 and 422451 and 372874"},
      {"measurement": "Fold Change", "setting": "[1]; [4]", "value": "29.7356 and 27.4185 and 29.8685 and 26.3633"},
      {"measurement": "Blank corrected (470-80)", "setting": "[1]; [5]", "value": "400261 and 371225 and 406289 and 348754"},
      {"measurement": "Fold Change", "setting": "[1]; [5]", "value": "28.2996 and 26.2467 and 28.7258 and 24.6579"},
      {"measurement": "Blank corrected (470-80)", "setting": "[1]; [6]", "value": "327362 and 397295 and 324101 and 372826"},
      {"measurement": "Fold Change", "setting": "[1]; [6]", "value": "23.1455 and 28.0899 and 22.9149 and 26.3599"},
      {"measurement": "Blank corrected (470-80)", "setting": "[1]; [7]", "value": "379647 and 379271 and 373688 and 369126"},
      {"measurement": "Fold Change", "setting": "[1]; [7]", "value": "26.8422 and 26.8156 and 26.4208 and 26.0983"}
    ]},
    {"compound": "O=C1CCC(N2C(=O)c3cccc(OCCOCCCCCCCl)c3C2=O)C(=O)N1", "note": "(stereo not drawn) [HC3]", "values": [
      {"measurement": "Blank corrected (470-80)", "setting": "[1]; [4]", "value": "383533 and 318115 and 323446 and 301555"},
      {"measurement": "Fold Change", "setting": "[1]; [4]", "value": "27.1169 and 22.4917 and 22.8686 and 21.3208"},
      {"measurement": "Blank corrected (470-80)", "setting": "[1]; [5]", "value": "323125 and 344451 and 351301 and 328848"},
      {"measurement": "Fold Change", "setting": "[1]; [5]", "value": "22.8459 and 24.3537 and 24.838 and 23.2505"},
      {"measurement": "Blank corrected (470-80)", "setting": "[1]; [6]", "value": "366778 and 337071 and 347923 and 313983"},
      {"measurement": "Fold Change", "setting": "[1]; [6]", "value": "25.9323 and 23.8319 and 24.5992 and 22.1995"},
      {"measurement": "Blank corrected (470-80)", "setting": "[1]; [7]", "value": "388451 and 372097 and 370806 and 376397"},
      {"measurement": "Fold Change", "setting": "[1]; [7]", "value": "27.4646 and 26.3084 and 26.2171 and 26.6124"}
    ]},
    {"compound": "CC(C)C[C@@H](C=O)NC(=O)[C@H](CC(C)C)NC(=O)[C@H](CC(C)C)NC(=O)OCc1ccccc1", "note": "[MG132] (Cbz-Leu-Leu-Leu-aldehyde)", "values": [
      {"measurement": "Blank corrected Raw Data (470-80)", "setting": "[1]; +dox, MG132 (10uM) alone (DMSO instead of PROTAC)", "value": "83521 and 88764 and 88216 and 91215"},
      {"measurement": "Fold Change", "setting": "[1]; +dox, MG132 (10uM) alone (DMSO instead of PROTAC), fold of -dox well", "value": "83.7723 and 89.0311 and 88.4814 and 91.4895"}
    ]},
    {"compound": "CCc1cccc(N(CC)C(=O)Cn2c(C(=O)NC3CCC(C(=O)NCCCCCCCC(=O)NCCCCCCOc4cccc5c4C(=O)N(C4CCC(=O)NC4=O)C5=O)CC3)cc3ccccc32)c1", "note": "(stereo not drawn) [NC3]", "values": [
      {"measurement": "viable cells (PI exclusion)", "setting": "wild-type HT29 cells; TNF+SM+IDN", "value": "7.5 and 6.4 and 5.5"},
      {"measurement": "viable cells (PI exclusion)", "setting": "wild-type HT29 cells; Unt (no death stimulus)", "value": "69.5 and 75.6 and 73.1"},
      {"measurement": "degradation of the H-E-N-F substrate protein by Western blot, comparison of NanoTACs", "setting": "[2]", "value": "consistently outperforming the first analogue NC1"}
    ]},
    {"compound": "CCc1cccc(N(CC)C(=O)Cn2c(C(=O)NC3CCC(C(=O)NCCCCCCCC(=O)NCCCCNc4cccc5c4C(=O)N(C4CCC(=O)N(C)C4=O)C5=O)CC3)cc3ccccc32)c1", "note": "(stereo not drawn) [NC*]", "values": [
      {"measurement": "NanoLuc luminescence, Blank corrected (470-80)", "setting": "[1]; 62.5nM, 2h, replicate wells", "value": "6632 and 6164 and 5786"},
      {"measurement": "NanoLuc luminescence, Blank corrected (470-80)", "setting": "[1]; 62.5nM, 4h, replicate wells", "value": "6756 and 7430 and 5962 and 6824"},
      {"measurement": "NanoLuc luminescence, Blank corrected (470-80)", "setting": "[1]; 62.5nM, 6h, replicate wells", "value": "6820 and 5574 and 6168"},
      {"measurement": "NanoLuc luminescence, Blank corrected (470-80)", "setting": "[1]; 62.5nM, 8h, replicate wells", "value": "5136 and 5355 and 4609"},
      {"measurement": "NanoLuc luminescence, Blank corrected (470-80)", "setting": "[1]; 62.5nM, 10h, replicate wells", "value": "4237 and 3067 and 4015"},
      {"measurement": "NanoLuc luminescence, Blank corrected (470-80)", "setting": "[1]; 250nM, 2h, replicate wells", "value": "1984 and 2219 and 1857"},
      {"measurement": "NanoLuc luminescence, Blank corrected (470-80)", "setting": "[1]; 250nM, 4h, replicate wells", "value": "1613 and 1684 and 1340"},
      {"measurement": "NanoLuc luminescence, Blank corrected (470-80)", "setting": "[1]; 250nM, 6h, replicate wells", "value": "1527 and 1526 and 1826 and 1766"},
      {"measurement": "NanoLuc luminescence, Blank corrected (470-80)", "setting": "[1]; 250nM, 8h, replicate wells", "value": "1602 and 1230 and 1627"},
      {"measurement": "NanoLuc luminescence, Blank corrected (470-80)", "setting": "[1]; 250nM, 10h, replicate wells", "value": "919 and 829 and 1005"},
      {"measurement": "NanoLuc luminescence, Blank corrected (470-80)", "setting": "[1]; 500nM, 2h, replicate wells", "value": "1232 and 850 and 1011 and 825"},
      {"measurement": "NanoLuc luminescence, Blank corrected (470-80)", "setting": "[1]; 500nM, 4h, replicate wells", "value": "934 and 992 and 902"},
      {"measurement": "NanoLuc luminescence, Blank corrected (470-80)", "setting": "[1]; 500nM, 6h, replicate wells", "value": "854 and 738 and 679 and 842"},
      {"measurement": "NanoLuc luminescence, Blank corrected (470-80)", "setting": "[1]; 500nM, 8h, replicate wells", "value": "717 and 620 and 849"},
      {"measurement": "NanoLuc luminescence, Blank corrected (470-80)", "setting": "[1]; 500nM, 10h, replicate wells", "value": "481 and 501 and 461"}
    ]},
    {"compound": "CCc1cccc(N(CC)C(=O)Cn2c(C(=O)N[C@H]3CC[C@H](C(=O)NCCCCCCCC(=O)O)CC3)cc3ccccc32)c1", "note": "[NanoLuc Inhibtor 2]", "values": [
      {"measurement": "NanoLuc luminescence (enzyme activity remaining)", "setting": "[3]; [uM] -0.30103 (log10 concentration)", "value": 0.9},
      {"measurement": "NanoLuc luminescence (enzyme activity remaining)", "setting": "[3]; [uM] -0.82391 (log10 concentration)", "value": "1.5 (2×) and 1.6"},
      {"measurement": "NanoLuc luminescence (enzyme activity remaining)", "setting": "[3]; [uM] -1.34679 (log10 concentration)", "value": "4.4 and 4.7 and 4.6"},
      {"measurement": "NanoLuc luminescence (enzyme activity remaining)", "setting": "[3]; [uM] -1.86967 (log10 concentration)", "value": "23.6 and 24.5 and 24.3"},
      {"measurement": "NanoLuc luminescence (enzyme activity remaining)", "setting": "[3]; [uM] -2.39254 (log10 concentration)", "value": "55.8 and 56.1 and 58"},
      {"measurement": "NanoLuc luminescence (enzyme activity remaining)", "setting": "[3]; [uM] -2.91542 (log10 concentration)", "value": "74.8 and 76.4 and 76"},
      {"measurement": "NanoLuc luminescence (enzyme activity remaining)", "setting": "[3]; [uM] -3.4383 (log10 concentration)", "value": "81.7 and 82.7 and 82.1"}
    ]},
    {"compound": "CCN(C(=O)Cn1c(C(=O)N[C@H]2CC[C@H](C(=O)NCCCCCCCC(=O)O)CC2)cc2sccc21)c1cccc(C)c1", "note": "[NanoLuc inhibitor 1]", "values": [
      {"measurement": "IC50", "setting": "NanoLuc", "value": 31, "unit": "nM"}
    ]},
    {"compound": "CCc1cccc(N(CC)C(=O)Cn2c(C(=O)N[C@H]3CC[C@H](C(=O)NCCCCCCCC(=O)O)CC3)cc3ccccc32)c1", "note": "[NanoLuc inhibitor 2]", "values": [
      {"measurement": "IC50", "setting": "NanoLuc", "value": 4.2, "unit": "nM"}
    ]}
  ]
}
